This note sets out measurements from article PMC5556019, “Targeting Apolipoprotein E/Amyloid β Binding by Peptoid CPO_Aβ17-21 P Ameliorates Alzheimer’s Disease Related Pathology and Cognitive Decline” (Scientific Reports, 2017).

Series [1] concerns APP/PS1 Tg mice. Nature of the series: Plasma total cholesterol level. The series is classed as in vivo. Conditions: 0.2 mg per mouse i.p. twice weekly for 4 months; p > 0.05. How it is done: (§1) The effect of CPO_Aβ17-21 P on Aβ deposition was tested in APP/PS1 Tg mice with plaque pathology. This AD mouse model develops plaque pathology from the age of 3 months. Animals were divided into two groups and received intraperitoneally (i.p.) injections of 0.2 mg of CPO_ Aβ17–21 P per mouse in sterile saline (n = 11, 5 male, 6 female) or saline alone (n = 10, 5 male, 5 female) as a control twice weekly for 4 months, beginning at age 3 months. During the treatment, veterinary staff monitored animals for any signs of toxicity, such as changes in body weight, physical appearance, and altered behavior. Animals were sacrificed a week after administration of the last treatment dose and behavioral testing. All mouse care and experimental procedures were compliant with guidelines of animal experimentation and were approved by the Institutional Animal Care and Use Committee at the New York University School of Medicine.
Plasma cholesterol level was measured by using a Cholesterol E kit (Wako Diagnostics, Richmond, VA)[45]. The Cholesterol E is an enzymatic colorimetric method for the quantitative determination of total cholesterol in the blood.

Series [2] relates to SK-N-SH human neuroblastoma cells. The experiment in a line: Toxicity rescue: apoE4-enhanced cytotoxicity of oligomeric Aβ42. The series is classed as cell-based. Conditions: Aβ42 10 µM, apoE4 1 µM pre-incubated 6 hrs with inhibitor (Aβ12-28 P 4 µM; CPO_Aβ17-21 P 1 or 4 µM), three days. As to the method: Oligomeric Aβ42 was prepared as previously published. To prepare 100 µM oligomeric Aβ42 stock solution, 0.45 mg HFIP pretreated Aβ42 peptide was dissolved into 20 µl fresh dry dimethyl sulfoxide (DMSO) to form 5 mM Aβ42 DMSO solution; then 980 µl ice cold phenol-free Ham’s F-12 cell culture medium (with 146 mg/L L-Glutamine) was added to the Aβ42 DMSO solution followed by incubation at 4 °C for 24 hrs. CPO_ Aβ17–21 P or Aβ12-28 P was pre-incubated with apoE4 in DMEM medium containing 1% N-2 supplement for 6 hrs at 37 °C then mixed with freshly prepared oligomeric Aβ42 and added to SK-N-SH cells. For comparison, cells were incubated with Aβ42 alone and Aβ42 + apoE4, apoE alone, Aβ42 + CPO_Aβ17-21 P and Aβ42 + Aβ12-28 P as additional controls. The final concentration of peptides or peptoids was as follows: Aβ42 10 µM, apoE4 1 µM, Aβ12-28 P 4 µM and CPO_Aβ17-21 P 1 µM or 4 µM. Cells were under different treatments for three days and the cell viability was assessed as described above.

For series [3], the system named is APP/PS1 Tg mice. Nature of the series: Astrocytosis and microgliosis by GFAP, CD11b and Iba1 immunoreactivity. The conditions noted are these: semi-quantitative rating 0-4, versus vehicle. It is filed as in vivo, mouse. How it is done:
as §1
Mice were anesthetized with sodium pentobarbital (150 mg/kg, i.p.) and blood was collected via cardiac puncture and plasma was separated by centrifugation. Animals were perfused transaortically. The brains and internal organs were collected and cut into halves, one half immersion-fixed in periodate-lysine paraformaldehyde (PLP) for histopathological analysis, and another half snap-frozen for biochemical studies as previously described. Serial coronal brain sections (40 μm) were cut evenly spaced every 400 μm μm along the entire rostro-caudal brain axis and stained for immunohistochemical analysis with: (1) a mixture of anti-Aβ monoclonal antibodies 6E10/4G8 (1 :2000) (Covance, Princeton, NJ), (2) polyclonal anti-glial fibrillary acidic protein (GFAP) antibody (1:1000) (Dako, Carpinteria, CA), (3) polyclonal anti-Iba1 antibody (1:1000) (Wako Chemicals, Richmond, VA) and (4) monoclonal anti-CD11b (1: 500) (Serotec, Raleigh, NC). To measure treated mice brain total amyloid burden change, two different anti-Aβ monoclonal antibodies with distinct epitopes 6E10 (epitope Aβ1–16) and 4G8 (epitope Aβ17–24) were used[38]. To examine brain inflammation levels associated with treatment, we assessed the degree of astrocytosis with GFAP immunoreactivity and the degree of microgliosis with Iba1 and CD11b immunoreactivity as previously published, [37], [39], [40]. GFAP is a component of the glial intermediate filaments that form part of the cytoskeleton and is found predominantly in astrocytes. CD11b is a protein subunit that forms integrin alpha-M beta-2 (αMβ2) molecule, also known as MAC-1 or complement receptor 3 (CR3). CD11b monoclonal antibodies are commonly used for detection of microglial activation at the earliest stages of plaque development. In addition, Iba1 (ionized calcium binding adaptor molecule) antibody was used to label the entire microglia population including activated and resting microglia, a marker for detecting generic microglia, [43]. Immunohistochemistry was performed on free floating coronal brain sections. Details of the procedure and techniques were described previously, [37], [39], [40]. […] Human Alzheimer disease patients brain sections were used for positive control immunostaining, sequential mouse brain sections with omission of the primary antibody were used for negative immunostaining controls.
The assessment of astrocytosis and microgliosis were based on a semi-quantitative analysis, using methods we have previously published by a rater blinded to the treatment status of the mice[19], [37], [39], [40]. Prior to analysis, brains were microscopically examined and rated on a scale from 0–4, in increments of 0.5, depending on the degree of pathology and/or the activation stage of the glial cells. All stained cortical and hippocampal sections were analyzed at 10x magnification. Approximately 8 cortical sections and 6 hippocampal sections were analyzed per animal. […]

For series [4], the system named is APP/PS1 Tg mice. Nature of the series: Total amyloid burden by 6E10/4G8 immunohistochemistry. It is filed as in vivo, mouse. Conditions: one-tailed unpaired t-test. How it is done:
as §1, with “All mouse care and experimental procedures were compliant with guidelines of animal experimentation and were approved by the Institutional Animal Care and Use Committee at the New York University School of Medicine.” left out
Mice were anesthetized with sodium pentobarbital (150 mg/kg, i.p.) and blood was collected via cardiac puncture and plasma was separated by centrifugation. […] To examine brain inflammation levels associated with treatment, we assessed the degree of astrocytosis with GFAP immunoreactivity and the degree of microgliosis with Iba1 and CD11b immunoreactivity as previously published, [37], [39], [40]. […]
Amyloid burden was measured by a Bioquant stereology (BIOQUANT Image Analysis Corporation, Nashville, TN) semi-automated image analysis system using a randomized and unbiased sampling scheme according to our previous published protocol, [19], [37], [39], [40]. […]

Numbered stars: 1 amine (or outer) side, 2 acyl side, 3 side chain; on linkers, the order of the positions; unused ones are H or OH. Bridge positions count the residues as written; N and C are the ends. Square brackets hold non-standard residues; d marks the D form. Peptide text beside a SMILES is read from it. ξ: configuration not given here. N(CH2CH2CO)Gly = O=C(CN(CCC(=O)[*:3])[*:1])[*:2]; Nphe = O=C(O)CNCc1ccccc1; Nleu = CC(C)CNCC(=O)O; ξP = O=C(O)C1CCCN1; Sar = CNCC(=O)O

With `CC(C)CN1CC(=O)N2CCCC2C(=O)N(Cc2ccccc2)CC(=O)N(Cc2ccccc2)CC(=O)N(C)CC(=O)N(CC(N)=O)CCC1=O` (stereo not shown) [CPO_Aβ17-21 P] ([Nleu][ξP][Nphe][Nphe][Sar][N(CH2CH2CO)Gly]-NH2; lactam N-6), the “plasma total cholesterol level, treated versus vehicle” value in the series on APP/PS1 Tg mice [1] is on record as “no significant difference”. For the same molecule, in series [2], the “neutralization of apoE4-enhanced cytotoxicity of Aβ42” value is “neutralized”. In the series with APP/PS1 Tg mice [3], the “cortical astrogliosis (GFAP immunoreactivity)” value was “no significant effect”, the “cortical microgliosis (CD11b immunoreactivity)” value was “decreased”, the “cortical microgliosis (Iba1 immunoreactivity)” value is “reduced” and the “hippocampal astrogliosis (GFAP immunoreactivity)” value is “decreased”. For the same molecule, in the series with APP/PS1 Tg mice [3], the “hippocampal microgliosis (CD11b immunoreactivity)” value is “no significant effect” and the “hippocampal microgliosis (Iba1 immunoreactivity)” value was “no significant effect”. For the same molecule, the “total amyloid burden (6E10/4G8 immunoreactivity), cortex” value in the series on APP/PS1 Tg mice [4] (p = 0.0226 versus vehicle) is given as “significant reduction”. Moreover, the “total amyloid burden (6E10/4G8 immunoreactivity), hippocampus” value in the series on APP/PS1 Tg mice [4] (p = 0.0361 versus vehicle) is recorded as “significant reduction”.
